Assay results as given in patent publication US9255090B2, “Heterocyclyl derivatives and their use as prostaglandin D2 receptor modulators” (Actelion Pharmaceuticals Ltd., priority 2012, dated 2016).

Target: hCRTH2 receptor (Homo sapiens (Human), UniProt Q9Y5Y4)
Assay: hCRTH2 receptor membranes radioligand (3H-PGD2) displacement assay
Format: binding
Conditions: 3H-PGD2 radioligand displacement, HEK293-hCRTH2 membranes
Procedure, shortened: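 Compound was first mixed with buffer, then 3H-PGD2 was added at 2.5 nM, and the reaction was started with hCRTH2 membranes from HEK293 cells at 20 μg/well. After 90 min at room temperature, mixtures were filtered and washed with ice-cold buffer, and retained radioactivity was counted.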

Sequence of hCRTH2 receptor (Q9Y5Y4 whole entry): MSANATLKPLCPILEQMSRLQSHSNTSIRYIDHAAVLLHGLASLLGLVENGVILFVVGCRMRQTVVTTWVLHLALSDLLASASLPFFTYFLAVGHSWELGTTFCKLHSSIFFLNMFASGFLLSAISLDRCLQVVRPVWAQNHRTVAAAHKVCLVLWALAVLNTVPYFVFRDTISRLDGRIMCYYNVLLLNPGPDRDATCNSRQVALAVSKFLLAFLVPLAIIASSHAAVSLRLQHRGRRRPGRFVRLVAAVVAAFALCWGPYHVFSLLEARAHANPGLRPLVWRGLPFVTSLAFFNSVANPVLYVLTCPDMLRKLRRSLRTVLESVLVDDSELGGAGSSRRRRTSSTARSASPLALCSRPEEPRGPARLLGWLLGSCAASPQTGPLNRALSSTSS

For `COc1ccc(CC(=O)O)cc1-c1ccc(F)c2c1CN(C(=O)Cc1n[nH]c3ccccc13)CC2` [Example 124, {3-[5-Fluoro-2-(2-1H-indazol-3-yl-acetyl)-1,2,3,4-tetrahydro-isoquinolin-8-yl]-4-methoxy-phenyl}-acetic acid], which IC50 is on record?
The IC50 was 10.5 nM.

`COc1ccc(CC(=O)O)cc1-c1ccc(F)c2c1CN(C(=O)CCn1ncc3cc(F)ccc31)CC2` [Example 126, (3-{5-Fluoro-2-[3-(5-fluoro-indazol-1-yl)-propionyl]-1,2,3,4-tetrahydro-isoquinolin-8-yl}-4-methoxy-phenyl)-acetic acid] was tested. Which IC50 did it give?
The IC50 was 9.54 nM.

Which IC50 does the source give for `COc1ccc(CC(=O)O)cc1-c1ccc(F)c2c1CN(C(=O)CC1CCCCC1)CC2` [Example 127, {3-[2-(2-Cyclohexyl-acetyl)-5-fluoro-1,2,3,4-tetrahydro-isoquinolin-8-yl]-4-methoxy-phenyl}-acetic acid] here?
The IC50 was 176 nM.

With `COc1ccc(CC(=O)O)cc1-c1ccc(F)c2c1CN(C(=O)CC1(O)CCCCC1)CC2` [Example 128, (3-{5-Fluoro-2-[2-(1-hydroxy-cyclohexyl)-acetyl]-1,2,3,4-tetrahydro-isoquinolin-8-yl}-4-methoxy-phenyl)-acetic acid] as the compound, how does the IC50 read?
The IC50 was 538 nM.

`COc1ccc(CC(=O)O)cc1-c1ccc(F)c2c1CN(C(=O)CC(C)(C)C)CC2` [Example 129, {3-[2-(3,3-Dimethyl-butyryl)-5-fluoro-1,2,3,4-tetrahydro-isoquinolin-8-yl]-4-methoxy-phenyl}-acetic acid] was tested. Which IC50 did it give?
Its IC50 is 913 nM.

`COc1ccc(CC(=O)O)cc1-c1ccc(F)c2c1CN(C(=O)NCc1ccccc1F)CC2` [Example 130, {3-[5-Fluoro-2-(2-fluoro-benzylcarbamoyl)-1,2,3,4-tetrahydro-isoquinolin-8-yl]-4-methoxy-phenyl}-acetic acid] was tested. Which IC50 did it give?
Its IC50 is 17.7 nM.

With `COc1ccc(CC(=O)O)cc1-c1ccc(F)c2c1CN(C(=O)NCc1cccc(F)c1)CC2` [Example 131, {3-[5-Fluoro-2-(3-fluoro-benzylcarbamoyl)-1,2,3,4-tetrahydro-isoquinolin-8-yl]-4-methoxy-phenyl}-acetic acid] as the compound, how does the IC50 read?
Its IC50 is 60.1 nM.

With `COc1ccc(CC(=O)O)cc1-c1ccc(F)c2c1CN(C(=O)NCCc1ccccc1)CC2` [Example 133, [3-(5-Fluoro-2-phenethylcarbamoyl-1,2,3,4-tetrahydro-isoquinolin-8-yl)-4-methoxy-phenyl]-acetic acid] as the compound, how does the IC50 read?
The IC50 was 13 nM.

Which IC50 does the source give for `COc1ccc(CC(=O)O)cc1-c1ccc(F)c2c1CN(C(=O)NCc1ccccc1Cl)CC2` [Example 134, {3-[2-(2-Chloro-benzylcarbamoyl)-5-fluoro-1,2,3,4-tetrahydro-isoquinolin-8-yl]-4-methoxy-phenyl}-acetic acid] here?
The IC50 was 21.5 nM.

Which IC50 does the source give for `COc1ccccc1CNC(=O)N1CCc2c(F)ccc(-c3cc(CC(=O)O)ccc3OC)c2C1` [Example 135, {3-[5-Fluoro-2-(2-methoxy-benzylcarbamoyl)-1,2,3,4-tetrahydro-isoquinolin-8-yl]-4-methoxy-phenyl}-acetic acid] here?
Its IC50 is 19.6 nM.

With `COc1ccc(CC(=O)O)cc1-c1ccc(F)c2c1CN(C(=O)NCc1ccccc1)CC2` [Example 136, [3-(2-Benzylcarbamoyl-5-fluoro-1,2,3,4-tetrahydro-isoquinolin-8-yl)-4-methoxy-phenyl]-acetic acid] as the compound, how does the IC50 read?
Its IC50 is 30.6 nM.

Which IC50 does the source give for `CCCNC(=O)N1CCc2c(F)ccc(-c3cc(CC(=O)O)ccc3OC)c2C1` [Example 137, [3-(5-Fluoro-2-propylcarbamoyl-1,2,3,4-tetrahydro-isoquinolin-8-yl)-4-methoxy-phenyl]-acetic acid] here?
Its IC50 is 764 nM.

Which IC50 does the source give for `CCOC(=O)N1CCc2c(F)ccc(-c3cc(CC(=O)O)ccc3OC)c2C1` [Example 141, 8-(5-Carboxymethyl-2-methoxy-phenyl)-5-fluoro-3,4-dihydro-1H-isoquinoline-2-carboxylic acid ethyl ester] here?
Its IC50 is 187 nM.

How did the IC50 turn out when `COc1ccc(CC(=O)O)cc1-c1ccc(F)c2c1CN(C(=O)OCC(C)C)CC2` [Example 142, 8-(5-Carboxymethyl-2-methoxy-phenyl)-5-fluoro-3,4-dihydro-1H-isoquinoline-2-carboxylic acid isobutyl ester] was run?
Its IC50 is 148 nM.
